Results from US6306879A, “Stable aqueous solution of 3-(1-oxo-1,3-dihydroisoindol-2-yl)-piperidine-2-6-dione” (Gruenenthal GmbH, priority 1999, dated 2001).

Columns and labels:
[1] = Arch. Pharm. 321, 371 (1988); cited from earlier work
[2] = system: severe aphthous stomatitis; details: cited from earlier work
[3] = system: cutaneous lupus erythematodes, pyoderma gangrenosum, urogenital ulcers in Bechet's syndrome, ulcerations in those infected with HIV; details: without resulting in general immunosuppression; cited from earlier work
[4] = system: TNF-α production of LPS-activated monocytes; test: TNF-α production of LPS-activated monocytes (sandwich ELISA); type: cell-based; details: LPS-activated human monocytes
Experimental: (§1) In order to investigate the immunomodulatory efficacy of the solutions produced, human monocytes were isolated from peripheral blood mononuclear cells (PBMCs) and were activated with bacterial LPS (lipopolysaccharide). The concentration of TNF-α and IL-12 in the supernatant liquors from all cell cultures was determined by means of sandwich ELISAs (Biosource Europe, Fleurus, Belgium).

[5] = Spontaneous hydrolysis of EM 12 in aqueous solution; type: physicochemical
[6] = system: IL-12 production of LPS-activated monocytes; test: IL-12 production of LPS-activated monocytes (sandwich ELISA); type: cell-based; details: LPS-activated human monocytes
Experimental: as §1

[7] = Stability testing of the EM 12 solution over 2 weeks; type: physicochemical; details: after 2 weeks; 200 μg/ml in 5% glucose, pH 5.5, room temperature
Source text: The solution was stored at room temperature. The pH of the final solution was 5.5.
Portions of the solutions were repeatedly taken as samples for analysis over a period of 2 weeks.

| spontaneous hydrolysis ([5]; aqueous EM 12 solution, pH less than or equal to 5.5) | EM 12 present in solution after storage [7] | SMILES | solubility in water [1] | efficacy vs classical immunosuppressants [2] | efficacy [3] | TNF-α concentration in supernatant ([4]; EM 12 2 μg/ml) | TNF-α concentration in supernatant ([4]; EM 12 10 μg/ml) | tendency to undergo spontaneous hydrolysis ([5]; aqueous solutions) | IL-12 concentration in supernatant ([6]; EM 12 2 μg/ml) | IL-12 concentration in supernatant ([6]; EM 12 10 μg/ml) | biological efficacy after storage [7] |
| --- | --- | --- | --- | --- | --- | --- | --- | --- | --- | --- | --- |
| – | – | O=C1CCC(N2C(=O)c3ccccc3C2=O)C(=O)N1 (centres unmarked) [Thalidomide, 2-(2,6-dioxo-piperidin-3-yl)-isoindole-1,3-dione] | low | superior | good efficacy | – | – | – | – | – | – |
| does not occur | still present | O=C1CCC(N2Cc3ccccc3C2=O)C(=O)N1 (racemic) [EM 12, 3-(1-oxo-1,3-dihydroisoindol-2-yl)-piperidine-2,6-dione] | – | – | – | 9915 pg/mL | 9548 pg/mL | tendency of EM 12 to undergo spontaneous hydrolysis | 528 pg/mL | 464 pg/mL | retained its full biological efficacy |
